In brackets after ≈: the same amount, converted by molar mass.
Experiments:
Type in all cases: functional
Tetranychus cinnabarinus [1] = experiment: Synergism ratio, LC50 for insecticidal activity against compound resistant Tetranychus cinnabarinus (carmine spider mite) to LC50 for insecticidal activity against compound resistant Tetranychus cinnabarinus in presence of piperonyl butoxide (PBO), diethyl maleate (DEM) and triphenyl phosphate (TPP)
Tetranychus cinnabarinus [2] = experiment: Insecticidal activity against compound resistant Tetranychus cinnabarinus (carmine spider mite) in presence of piperonyl butoxide (PBO), diethyl maleate (DEM) and triphenyl phosphate (TPP)
Tetranychus cinnabarinus [3] = experiment: Resistance ratio, LC50 for insecticidal activity against compound resistant Tetranychus cinnabarinus (carmine spider mite) in presence of piperonyl butoxide (PBO), diethyl maleate (DEM) and triphenyl phosphate (TPP) to LC50 for insecticidal activity against compound susceptible Tetranychus cinnabarinus in presence of piperonyl butoxide (PBO), diethyl maleate (DEM) and triphenyl phosphate (TPP)
Tetranychus cinnabarinus [4] = experiment: Insecticidal activity against compound susceptible Tetranychus cinnabarinus (carmine spider mite)

For `CC1(C)C(C(=O)OC(C#N)c2cccc(Oc3ccccc3)c2)C1(C)C` (centres undefined) [FENPROPATHRIN], the Ratio (Tetranychus cinnabarinus [1]) was 1, the LC50 (Tetranychus cinnabarinus [2]) was 70.3 mg/mL and the Ratio (Tetranychus cinnabarinus [3]) was 98.5. The LC50 (Tetranychus cinnabarinus [4]) was 0.714 mg/mL (≈ 2040 µM).

Source: ChEMBL document CHEMBL3044876, “The sodium channel gene in Tetranychus cinnabarinus (Boisduval): identification and expression analysis of a mutation associated with pyrethroid resistance” (2011)
